Source: patent US6958145B2, “Synthesis of cyclic compounds” (Unisearch Limited, priority 2000, dated 2005)

What was measured:
AI-2 activity = experiment: V. harveyi bioassay for the detection of AI-2 activity; assay type: cell-based; details: V. harveyi BB170 luminescence
Procedure: The V. harveyi bioassay was performed as described previously (Surette and Bassler, 1998). The V. harveyi reporter strain BB170 was grown for 16 hours at 30° C. with shaking in AB medium. Cells were diluted 1:5,000 into 30° C. prewarmed AB medium and 90 ul of the diluted suspension was added to wells containing supernatant. Furanones were added to the wells to achieve the desired final concentrations and the final volume in each well was adjusted with sterile medium to 100 ul. Ten ul of V. harveyi BB152 (AI-1−, AI-2+) supernatant was used as a positive control and 10 ul of E. coli DH5α supernatant or sterile media was used as a negative control. […] The microtiter plates were incubated at 30° C. with shaking at 175 rpm. Hourly determinations of the total luminescence were quantified using the chemiluminescent setting on a Wallac (Gaithersburg, Md.) model 1450 Microbeta Plus liquid scintillation counter. The V. harveyi cell density was monitored by the use of a microplate reader (Bio-Rad, Hercules, Calif.). Activity is reported as the percentage of activity obtained from V. harveyi BB152 cell-free supernatant. While the absolute values of luminescence varied considerably between experiments, the pattern of results obtained was reproducible.

[1] = test system: two-component signal transduction; experiment: Taz-1 assay, two-component signal transduction; assay type: cell-based, E. coli; details: beta-galactosidase readout
Procedure: The Taz-assay carried out according to the method of Jin and Inouye (1993) with the following alterations. E. coli RU1012 (pYT0301) were grown overnight in M9 medium at 37° C. supplemented with 100 ug/ml ampicillin and 50 ug/ml kanamycin. This overnight culture was then used to inoculate 50 ml M9 medium in side-arm flasks which were then incubated at 37° C. and shaken at 180 rpm. The OD610 of the growing cultures was monitored regularly and when the OD610=0.2 the cultures were placed on ice. Aspartate was added to side-arm flasks to give a final concentration of 3 mM (aspartate stock solution made up in M9 salts).
The test compound or mixtures of compounds were dissolved in ethanol and added to cultures to give the required final concentrations. Negative controls were prepared with equal volumes of ethanol. Cultures were then placed in a 37° C. incubator and shaken for 4 hours (OD610 approximately 0.7) before being removed and put on ice. Samples were then removed for […]eta-galactosidase assays carried out according to the method of Miller (1972).

[2] = test system: AHL mediated quorum sensing

| SMILES | AI-2 (AI-2 activity) (AI-2 activity) [% reduction] | 2 component (two-component signal transduction assay) [1] | AHL (inhibitor of AHL-mediated quorum sensing) [2] |
| --- | --- | --- | --- |
| CC1=CC(=O)OC1(Br)C(Br)Br (stereo not shown) [compound 72] | 97 |  |  |
| CC1=CC(=C(Br)Br)OC1=O [compound 64] | 80 | No effect | good |
